The source of these data is patent US10087188B2, “Benzamide imidazopyrazine Btk inhibitors” (MERCK SHARP & DOHME CORP., priority 2014, dated 2018).

The target in assay [1] is BTK enzyme (recombinant full-length BTK, hBTK) (Homo sapiens (Human), UniProt Q06187). The assay can be described thus: Btk enzyme activity assay, LANCE TR-FRET. It is filed as biochemical. To be noted: 50 pM hBTK, 2 μM biotin-A5-peptide, 25 μM ATP; 60 minute compound & enzyme incubation; read-out: BTK binding IC50. On the procedure:
Btk Enzyme Activity Assay Methods
BTK enzymatic activity was determined with the LANCE (Lanthanide Chelate Excite) TR-FRET (Time-resolved fluorescence resonance energy transfer) assay. […] After 60 minutes incubation with detection reagents, reaction plates were read on a PerkinElmer EnVision plate reader using standard TR-FRET protocol.

The test system of a further assay is HeLa cells. The assay can be described thus: [3H] Adenosine uptake assay. The class given is cell-based. To be noted: Homo sapiens, HeLa, accumulation of tritiated adenosine into HeLa cells; compound concentration range 10 μM to 0.032 nM; read-out: ADU inhibition IC50 (adenosine uptake inhibition potency). How it is done: Compounds are also screen in an adenosine uptake functional cellular assay using the protocol described below:
[^3H] Adenosine Uptake Assay Methods
Adenosine uptake activity was determined by monitoring the accumulation of tritiated adenosine into HeLa cells (ATCC catalog #CCL-2) using a PMT-based radiometric detection instrument. […] These cells were incubated overnight at 37° C. in a humidified atmosphere with 5% (v/v) CO2. After this time the growth medium was removed and replaced with 40 μL assay medium comprising: Hanks balanced salts solution (HBSS; Thermo Fisher Catalog #SH30268.01)+5% (v/v) FBS. Compound stock solutions in DMSO were diluted in assay medium to 2.5× final compound concentration maintaining a constant DMSO concentration of 0.25% (v/v). 40 μL of compound in assay medium was dispensed into individual wells of the Cytostar-T plates and the plates were incubated for 30 minutes under ambient laboratory conditions. Following this incubation, 20 μL of 500 nM[^3H] adenosine (American Radiolabeled Chemicals Inc. Catalog #ART0287) in assay medium was added and incubated for a further 60 minutes under ambient laboratory conditions. The amount of radiolabel accumulation was then determined using a Perkin Elmer Topcount NXT microplate reader. In brief, HeLa cells adhere to the bottom of the Cytostar-T plate, uptake of [^3H]adenosine into these cells brings the radiolabel into sufficient proximity to excite the scintillant in the base of the plates. These events are captured by single PMT, time-resolved coincidence counting. IC50 values were determined by 4 parameter robust fit of counts per second values vs. (Log10) compound concentrations.

SMILES strings stand for the structures.

BTK enzyme (recombinant full-length BTK, hBTK), sequence (Q06187 whole entry): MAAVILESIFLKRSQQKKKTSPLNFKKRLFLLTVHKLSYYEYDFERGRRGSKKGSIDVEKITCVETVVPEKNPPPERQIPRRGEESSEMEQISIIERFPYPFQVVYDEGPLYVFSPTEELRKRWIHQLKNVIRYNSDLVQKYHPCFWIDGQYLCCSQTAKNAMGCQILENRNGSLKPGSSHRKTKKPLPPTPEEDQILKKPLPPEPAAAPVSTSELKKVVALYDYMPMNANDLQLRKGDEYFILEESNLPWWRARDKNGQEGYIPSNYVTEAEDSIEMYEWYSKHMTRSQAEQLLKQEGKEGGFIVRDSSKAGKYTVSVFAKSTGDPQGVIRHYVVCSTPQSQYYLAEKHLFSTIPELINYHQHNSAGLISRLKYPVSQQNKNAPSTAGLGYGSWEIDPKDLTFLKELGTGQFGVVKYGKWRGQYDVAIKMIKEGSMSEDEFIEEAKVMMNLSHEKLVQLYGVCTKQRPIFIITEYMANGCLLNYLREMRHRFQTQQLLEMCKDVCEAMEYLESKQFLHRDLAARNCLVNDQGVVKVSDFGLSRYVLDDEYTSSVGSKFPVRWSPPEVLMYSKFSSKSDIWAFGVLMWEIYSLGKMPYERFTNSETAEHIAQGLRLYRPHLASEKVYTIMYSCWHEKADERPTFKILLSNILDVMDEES

For `C[C@]1(C(=O)O)CC[C@](C)(c2nc(-c3ccc(C(=O)Nc4cc(C(F)(F)F)ccn4)cc3)c3c(N)nccn32)CC1` [Example 30, trans-4-(8-amino-1-(4-((4-(trifluoromethyl)pyridin-2-yl)carbamoyl)phenyl)imidazo[1,5-a]pyrazin-3-yl)-1,4-dimethylcyclohexanecarboxylic acid], the results for the IC50 (in assay [1]; with HeLa cells) were 0.74 nM and 1450 nM, respectively.
`Nc1nccn2c([C@@H]3CCN[C@H](C(=O)O)C3)nc(-c3ccc(C(=O)Nc4cc(C(F)(F)F)ccn4)cc3)c12` [Example 32, (2S,4R)-4-[8-amino-1-(4-{[4-(trifluoromethyl)pyridin-2-yl]carbamoyl}phenyl)imidazo[1,5-a]pyrazin-3-yl]piperidine-2-carboxylic acid]: the values for the IC50 (in assay [1]; with HeLa cells) were 2.2 nM and 5910 nM, respectively.
For `Nc1nccn2c([C@@H]3CCN[C@@H](C(=O)O)C3)nc(-c3ccc(C(=O)Nc4cc(C(F)(F)F)ccn4)cc3)c12` [Example 33, (2R,4R)-4-[8-amino-1-(4-{[4-(trifluoromethyl)pyridin-2-yl]carbamoyl}phenyl)imidazo[1,5-a]pyrazin-3-yl]piperidine-2-carboxylic acid], in that order: 4.4 nM and 6800 nM.
Take `Nc1nccn2c(C34CC(C(=O)O)(C3)C4)nc(-c3ccc(C(=O)Nc4cc(C(F)(F)F)ccn4)cc3)c12` [Example 34, 3-[8-amino-1-(4-{[4-(trifluoromethyl)pyridin-2-yl]carbamoyl}phenyl)imidazo[1,5-a]pyrazin-3-yl]bicyclo[1.1.1] pentane-1-carboxylic acid]: the results for the IC50 (in assay [1]; in the assay on HeLa cells) were 0.39 nM and 6480 nM, respectively.
Turning to `Nc1nccn2c(N3CC[C@@H](C(=O)O)C3)nc(-c3ccc(C(=O)Nc4cc(C(F)(F)F)ccn4)cc3)c12` [Example 36, (3R)-1-[8-amino-1-(4-{[4-(trifluoromethyl)pyridin-2-yl]carbamoyl}phenyl)imidazo[1,5-a]pyrazin-3-yl]pyrrolidine-3-carboxylic acid], the IC50 in assay [1] was determined as 2.6 nM; with HeLa cells, 4700 nM.
For `Nc1nccn2c(N3CC[C@H](C(=O)O)C3)nc(-c3ccc(C(=O)Nc4cc(C(F)(F)F)ccn4)cc3)c12` [Example 39, (3S)-1-[8-amino-1-(4-{[4-(trifluoromethyl)pyridin-2-yl]carbamoyl}phenyl)imidazo[1,5-a]pyrazin-3-yl]pyrrolidine-3-carboxylic acid], in that order: 0.91 nM and 10000 nM.
Consider `C[C@@]1(C(=O)O)CCCN(c2nc(-c3ccc(C(=O)Nc4cc(C(F)(F)F)ccn4)cc3)c3c(N)nccn23)C1` [Example 41, (3R)-1-[8-amino-1-(4-{[4-(trifluoromethyl)pyridin-2-yl]carbamoyl}phenyl)imidazo[1,5-a]pyrazin-3-yl]-3-methylpiperidine-3-carboxylic acid], for which the IC50 in assay [1] was 7.6 nM; in the assay with HeLa cells, 4290 nM.
For `C[C@]1(C(=O)O)CCCN(c2nc(-c3ccc(C(=O)Nc4cc(C(F)(F)F)ccn4)cc3)c3c(N)nccn23)C1` [Example 42, (3S)-1-[8-amino-1-(4-{[4-(trifluoromethyl)pyridin-2-yl]carbamoyl}phenyl)imidazo[1,5-a]pyrazin-3-yl]-3-methylpiperidine-3-carboxylic acid], in that order: 22.9 nM and 2770 nM.
For the compound `CC(C)(C(=O)O)N1CC(=O)N2C[C@H](c3nc(-c4ccc(C(=O)Nc5cc(C(F)(F)F)ccn5)cc4)c4c(N)nccn34)CC[C@H]2C1` [Example 43, 2-{(7R,9aS)-7-[8-amino-1-(4-{[4-(trifluoromethyl)pyridin-2-yl]carbamoyl}phenyl)imidazo[1,5-a]pyrazin-3-yl]-4-oxooctahydro-2H-pyrido[1,2-a]pyrazin-2-yl}-2-methylpropanoic acid], the IC50 worked out at 0.41 nM in assay [1] and 4190 nM in the assay on HeLa cells.
On the same counts, the results for `C[C@@]1(C(=O)O)CCN(c2nc(-c3ccc(C(=O)Nc4cc(C(F)(F)F)ccn4)cc3)c3c(N)nccn23)C1` [Example 44, (3R)-1-[8-amino-1-(4-{[4-(trifluoromethyl)pyridin-2-yl]carbamoyl}phenyl)imidazo[1,5-a]pyrazin-3-yl]-3-methylpyrrolidine-3-carboxylic acid] are 1.8 nM and 8740 nM.
For `C[C@]1(C(=O)O)CCN(c2nc(-c3ccc(C(=O)Nc4cc(C(F)(F)F)ccn4)cc3)c3c(N)nccn23)C1` [Example 45, (3S)-1-[8-amino-1-(4-{[4-(trifluoromethyl)pyridin-2-yl]carbamoyl}phenyl)imidazo[1,5-a]pyrazin-3-yl]-3-methylpyrrolidine-3-carboxylic acid], in that order: 1.4 nM and 10000 nM.
On the same counts, the results for `Nc1nccn2c([C@H]3CC[C@@H](CC(=O)O)C3)nc(-c3ccc(C(=O)Nc4cc(C(F)(F)F)ccn4)cc3)c12` [Example 50, {(1R,3S)-3-[8-amino-1-(4-{[4-(trifluoromethyl)pyridin-2-yl]carbamoyl}phenyl)imidazo[1,5-a]pyrazin-3-yl]cyclopentyl}acetic acid] are 0.26 nM and 3700 nM.
With `Nc1nccn2c([C@H]3CC[C@H](CC(=O)O)C3)nc(-c3ccc(C(=O)Nc4cc(C(F)(F)F)ccn4)cc3)c12` [Example 51, {(1S,3S)-3-[8-amino-1-(4-{[4-(trifluoromethyl)pyridin-2-yl]carbamoyl}phenyl)imidazo[1,5-a]pyrazin-3-yl]cyclopentyl}acetic acid], the IC50 in assay [1] came out at 0.29 nM; in the assay with HeLa cells, 4000 nM.
On the same counts, the results for `CCOc1cc(C(=O)Nc2cc(C(F)(F)F)n(C)n2)ccc1-c1nc([C@@H]2CC[C@@](C(=O)O)(C(C)C)C2)n2ccnc(N)c12` [Example 52, (1S,3R)-3-[8-amino-1-(2-ethoxy-4-{[1-methyl-5-(trifluoromethyl)-1H-pyrazol-3-yl]carbamoyl}phenyl)imidazo[1,5-a]pyrazin-3-yl]-1-(1-methylethyl) cyclopentane-carboxylic acid] are 9 nM and 10000 nM.
On the same counts, the results for `CCOc1cc(C(=O)Nc2cc(C(F)(F)F)n(C)n2)ccc1-c1nc([C@H]2CC[C@@](C(=O)O)(C(C)C)C2)n2ccnc(N)c12` [Example 53, (1S,3S)-3-[8-amino-1-(2-ethoxy-4-{[1-methyl-5-(trifluoromethyl)-1H-pyrazol-3-yl]carbamoyl}phenyl)imidazo[1,5-a]pyrazin-3-yl]-1-(1-methylethyl) cyclopentane-carboxylic acid] are 0.87 nM and 10000 nM.
On the same counts, the results for `Nc1nccn2c([C@@H]3CC[C@H](CC(=O)O)C3)nc(-c3ccc(C(=O)Nc4cc(C(F)(F)F)ccn4)cc3)c12` [Example 54, {(1S,3R)-3-[8-amino-1-(4-{[4-(trifluoromethyl)pyridin-2-yl]carbamoyl}phenyl)imidazo[1,5-a]pyrazin-3-yl]cyclopentyl}acetic acid] are 0.18 nM and 10000 nM.
As to `Nc1nccn2c([C@@H]3CC[C@H]4[C@H](C(=O)O)[C@H]43)nc(-c3ccc(C(=O)Nc4cc(C(F)(F)F)ccn4)cc3)c12` [Example 56, (1R,2R,5R,6S)-2-[8-amino-1-(4-{[4-(trifluoromethyl)pyridin-2-yl]carbamoyl}phenyl)imidazo[1,5-a]pyrazin-3-yl]bicyclo[3.1.0]hexane-6-carboxylic acid], the IC50 in assay [1] was found to be 0.52 nM; with HeLa cells, 10000 nM.
For `Nc1nccn2c([C@H]3CC[C@H]4[C@H](C(=O)O)[C@H]43)nc(-c3ccc(C(=O)Nc4cc(C(F)(F)F)ccn4)cc3)c12` [Example 57, (1R,2S,5R,6S)-2-[8-amino-1-(4-{[4-(trifluoromethyl)pyridin-2-yl]carbamoyl}phenyl)imidazo[1,5-a]pyrazin-3-yl]bicyclo[3.1.0] hexane-6-carboxylic acid], the IC50 in assay [1] is 3.2 nM; in the assay on HeLa cells, 10000 nM.
On to `CCOc1cc(C(=O)Nc2cc(C(F)(F)F)n(C)n2)ccc1-c1nc([C@H]2CC[C@](C(=O)O)(C(C)C)C2)n2ccnc(N)c12` [Example 58, (1R,3S)-3-[8-amino-1-(2-ethoxy-4-{[1-methyl-5-(trifluoromethyl)-1H-pyrazol-3-yl]carbamoyl}phenyl)imidazo[1,5-a]pyrazin-3-yl]-1-(1-methylethyl) cyclopentane-carboxylic acid], for which the IC50 in assay [1] turned out to be 27.6 nM; with HeLa cells, 10000 nM.
On the same counts, the results for `CCOc1cc(C(=O)Nc2cc(C(F)(F)F)n(C)n2)ccc1-c1nc([C@@H]2CC[C@](C(=O)O)(C(C)C)C2)n2ccnc(N)c12` [Example 59, (1R,3R)-3-[8-amino-1-(2-ethoxy-4-{[1-methyl-5-(trifluoromethyl)-1H-pyrazol-3-yl]carbamoyl}phenyl)imidazo[1,5-a]pyrazin-3-yl]-1-(1-methylethyl) cyclopentane-carboxylic acid] are 24.1 nM and 10000 nM.
